Assay results published in patent publication US12365667B2, “Sulfone pyridine alkyl amide-substituted heteroaryl compounds” (BRISTOL-MYERS SQUIBB COMPANY, priority 2017, dated 2025).

Each compound was assayed on IFNα-induced STAT phosphorylation (pSTAT5) in human whole blood (assay: IFNα-Induced STAT Phosphorylation in Human Whole Blood). Conditions: 1 h incubation with compound, 1000 U/mL recombinant human IFNα A/D for 15 min, pSTAT5 in CD3 positive population, read-out: IFNα-Induced Stat Phosph. (IC50).
Type: cell-based

| SMILES | IC50 [nM] |
| --- | --- |
| CNC(=O)c1nnc(Nc2ccc(C(C)(C)O)cn2)cc1Nc1nc(C)ccc1S(C)(=O)=O [Example 188] | 6 |
| CNC(=O)c1nnc(NC(=O)C2CC2)cc1Nc1nc(F)ccc1S(C)(=O)=O [Example 180] | 73 |
| CNC(=O)c1nnc(Nc2ccc(OC)nn2)cc1Nc1ncccc1[S+](C)[O-] (stereo not drawn) [Example 255] | 466 |
| CNC(=O)c1nnc(Nc2ccc(OC)cn2)cc1Nc1ncccc1S(C)(=O)=O [Example 2] | 26 |
| CNC(=O)c1nnc(Nc2ccc(C3CC3)nn2)cc1Nc1ncccc1S(C)(=O)=O [Example 15] | 13 |
| CNC(=O)c1nnc(Nc2ccc(N3CCOCC3)cn2)cc1Nc1nc(OC)ccc1S(C)(=O)=O [Example 203] | 46 |
| CNC(=O)c1nnc(NC(=O)CCOC)cc1Nc1ncccc1S(C)(=O)=O [Example 118] | 131 |
| CCCCC(=O)Nc1cc(Nc2ncccc2S(C)(=O)=O)c(C(=O)NC)nn1 [Example 119] | 73 |
| CNC(=O)c1cnc(NC(=O)C2CC2)cc1Nc1nc(C)ccc1S(C)(=O)=O [Example 242] | 50 |
| CNC(=O)c1nnc(NC2CC2)cc1Nc1ncccc1S(C)(=O)=O [Example 23] | 2140 |
| CNC(=O)c1cnc(Nc2cnc(C3CC3)cn2)cc1Nc1ncccc1S(C)(=O)=O [Example 222] | 59 |
| CNC(=O)c1nnc(Nc2ccc(N3CCOCC3)cn2)cc1Nc1nc(C)ccc1S(C)(=O)=O [Example 192] | 13 |
| CNC(=O)c1nnc(Nc2ccc(-c3c(F)cccc3F)nn2)cc1Nc1nc(F)ccc1S(C)(=O)=O [Example 182] | 2230 |
| [2H]C([2H])([2H])NC(=O)c1nnc(NC(=O)[C@H]2CC23CC3)cc1Nc1ncccc1S(C)(=O)=O [Example 253, (S)—N-(methyl-d3)-4-((3-(methylsulfonyl)pyridin-2-yl)amino)-6-(spiro[2.2]pentane-1-carboxamido)pyridazine-3-carboxamide] | 47 |
| CNC(=O)c1nnc(NC(=O)C2CC(F)C2)cc1Nc1ncccc1S(C)(=O)=O (single isomer, unassigned) [Example 126] | 343 |
| CNC(=O)c1nnc(NC(=O)OC)cc1Nc1ncccc1S(C)(=O)=O [Example 112] | 142 |
| CNC(=O)c1nnc(NC(=O)NC(C)(C)C)cc1Nc1ncccc1S(C)(=O)=O [Example 122] | 156 |
| CNC(=O)c1nnc(NC(=O)C=C2CCOCC2)cc1Nc1ncccc1S(C)(=O)=O [Example 123] | 183 |
| CNC(=O)c1nnc(Nc2ccnc(OC)n2)cc1Nc1ncccc1S(C)(=O)=O [Example 21] | 37 |
| CNC(=O)c1nnc(NC(=O)[C@@H]2C[C@@H]2F)cc1Nc1ncccc1S(C)(=O)=O [Example 44] | 14 |

The remaining lines, values ahead:

| IC50 [nM] | SMILES |
| --- | --- |
| 115 | CNC(=O)c1nnc(Nc2cc(N(C)C)ncn2)cc1Nc1ncccc1S(C)(=O)=O [Example 34] |
| 31 | CNC(=O)c1nnc(Nc2cc(C(F)(F)F)c(C(C)(C)O)cn2)cc1Nc1ncccc1S(C)(=O)=O [Example 31] |
| 15 | CNC(=O)c1nnc(Nc2ccc(N3CC(C)OC(C)C3)cn2)cc1Nc1ncccc1S(C)(=O)=O (stereo not drawn) [Example 100] |
| 13 | CNC(=O)c1nnc(Nc2ccc(Cl)nn2)cc1Nc1ncccc1S(C)(=O)=O [Example 90] |
| 23 | CNC(=O)c1nnc(Nc2cc(C3CC3)nc(C)n2)cc1Nc1ncccc1S(C)(=O)=O [Example 165] |
| 57 | CNC(=O)c1nnc(Nc2cnc(OC)cn2)cc1Nc1ncccc1S(C)(=O)=O [Example 80] |
| 28 | CNC(=O)c1nnc(Nc2ccc(OC)nn2)cc1Nc1ncccc1S(C)(=O)=O [Example 28] |
| 42 | CNC(=O)c1nnc(Nc2ccc(OC)nn2)cc1Nc1ncccc1S(C)(=O)=O [Example 7] |
| 38 | CNC(=O)c1nnc(Nc2cc(C#N)n(C)n2)cc1Nc1ncccc1S(C)(=O)=O [Example 12] |
| 11 | CNC(=O)c1nnc(Nc2ccc(C(C)(C)NC3COC3)cn2)cc1Nc1ncccc1S(C)(=O)=O [compound 170] |
| 29 | CNC(=O)c1nnc(Nc2cnn(C)n2)cc1Nc1ncccc1S(C)(=O)=O [Example 51] |
| 4 | CNC(=O)c1nnc(Nc2cc(COC)ccn2)cc1Nc1ncccc1S(C)(=O)=O [Example 96] |
| 34 | CNC(=O)c1nnc(Nc2ccc(OC(F)(F)F)cn2)cc1Nc1ncccc1S(C)(=O)=O [Example 140] |
| 28 | CNC(=O)c1nnc(Nc2cnc(C)cn2)cc1Nc1ncccc1S(C)(=O)=O [Example 93] |
| 22 | CNC(=O)c1nnc(Nc2cc(OC)c(C(C)(C)O)cn2)cc1Nc1ncccc1S(C)(=O)=O [Example 36] |
| 31 | CNC(=O)c1nnc(Nc2cc(C(C)(C)O)c(F)cn2)cc1Nc1ncccc1S(C)(=O)=O [Example 22] |
| 95 | CNC(=O)c1nnc(Nc2cc(COC)ncn2)cc1Nc1ncccc1S(C)(=O)=O [Example 101] |
| 18 | CNC(=O)c1nnc(Nc2ccc(C3(C#N)CC3)cn2)cc1Nc1ncccc1S(C)(=O)=O [Example 33] |
| 57 | CNC(=O)c1nnc(Nc2cc3ccc(C(C)(C)O)cc3cn2)cc1Nc1ncccc1S(C)(=O)=O [Example 30] |
| 164 | CNC(=O)c1cnc(Nc2cc(C(F)(F)F)ncn2)cc1Nc1ncccc1S(C)(=O)=O [Example 225] |
| 18 | CNC(=O)c1nnc(Nc2ccc(C(C)(C)N3CCOC3=O)cn2)cc1Nc1ncccc1S(C)(=O)=O [Example 75] |
| 193 | CNC(=O)c1nnc(Nc2ccc(C(C)(C)NC(=O)CN)nn2)cc1Nc1ncccc1S(C)(=O)=O [Example 65] |
| 23 | CNC(=O)c1nnc(Nc2cc(C(C)(C)NC(C)C)ccn2)cc1Nc1ncccc1S(C)(=O)=O [Example 72] |
| 398 | CNC(=O)c1nnc(Nc2ccc(OCC(C)(C)O)cn2)cc1Nc1ncccc1S(C)(=O)=O [Example 77] |
| 20 | CNC(=O)c1nnc(Nc2ccc(N3CCOCC3)nn2)cc1Nc1ncccc1S(C)(=O)=O [Example 110] |
| 11 | CNC(=O)c1nnc(Nc2cc(C3CC3)ncn2)cc1Nc1ncccc1S(C)(=O)=O [Example 14] |

Same assay, conditions: Homo sapiens, 1 h incubation with compound, 1000 U/mL recombinant human IFNα A/D for 15 min, pSTAT5 in CD3 positive population, read-out: IFNα-Induced Stat Phosph. (IC50)

| SMILES | IC50 [nM] |
| --- | --- |
| [2H]C([2H])([2H])NC(=O)c1nnc(Nc2cncc(C)n2)cc1Nc1ncccc1S(C)(=O)=O [Example 173, N-(methyl-d3)-6-((6-methylpyrazin-2-yl)amino)-4-((3-(methylsulfonyl)pyridin-2-yl)amino)pyridazine-3-carboxamide] | 17 |
| [2H]C([2H])([2H])NC(=O)c1nnc(Nc2ccc(OC)nn2)cc1Nc1nc(C)ccc1S(C)(=O)=O [Example 183, 6-((6-methoxypyridazin-3-yl)amino)-N-(methyl-d3)-4-((6-methyl-3-(methylsulfonyl)pyridin-2-yl)amino)pyridazine-3-carboxamide] | 105 |
| [2H]C([2H])([2H])NC(=O)c1cnc(Nc2ccc(-c3ccccc3)cn2)cc1Nc1ncccc1S(C)(=O)=O [Example 234, N-(methyl-d3)-4-((3-(methylsulfonyl)pyridin-2-yl)amino)-6-((5-phenylpyridin-2-yl)amino)nicotinamide] | 636 |
| [2H]C([2H])([2H])NC(=O)c1nnc(NC(=O)[C@H]2C[C@@H]2C(F)(F)F)cc1Nc1ncccc1S(C)(=O)=O [Example 175, N-(methyl-d3)-4-((3-(methylsulfonyl)pyridin-2-yl)amino)-6-((1S,2S)-2-(trifluoromethyl)cyclopropane-1-carboxamido)pyridazine-3-carboxamide] | 278 |

Second part, the compound after the results:

| IC50 [nM] | SMILES |
| --- | --- |
| 90 | CCNC(=O)c1nnc(Nc2ccc(C(C)(C)O)cn2)cc1Nc1ncccc1S(C)(=O)=O [Example 211, N-ethyl-6-((5-(2-hydroxypropan-2-yl)pyridin-2-yl)amino)-4-((3-(methylsulfonyl)pyridin-2-yl)amino)pyridazine-3-carboxamide] |
| 12 | [2H]C([2H])([2H])NC(=O)c1nnc(Nc2ccc(CNC(C)=O)cn2)cc1Nc1ncccc1S(C)(=O)=O [Example 69, 6-((5-(acetamidomethyl)pyridin-2-yl)amino)-N-(methyl-d3)-4-((3-(methylsulfonyl)pyridin-2-yl)amino)pyridazine-3-carboxamide] |
| 8 | [2H]C([2H])([2H])NC(=O)c1nnc(Nc2ccc(C(C)(C)NC(C)C)cn2)cc1Nc1ncccc1S(C)(=O)=O [Example 169, 6-((5-(2-(isopropylamino)propan-2-yl)pyridin-2-yl)amino)-N-(methyl-d3)-4-((3-(methylsulfonyl)pyridin-2-yl)amino)pyridazine-3-carboxamide] |
| 56 | CNC(=O)c1nnc(Nc2ccc(OC)nn2)cc1Nc1ncccc1S(C)(=O)=O [Example 209, 6-((6-methoxypyridazin-3-yl)amino)-N-methyl-4-((3-(methylsulfonyl)pyridin-2-yl)amino)pyridazine-3-carboxamide] |
